Data taken from patent US20180155757A1, “IDENTIFICATION OF BACTERIA THAT ARE RESISTANT TO CARBAPENEMS BY MEMBRANE IMPERVIOUSNESS” (BIOMÉRIEUX, priority 2015, published 2018).
Read-outs that look alike come from different tables or passages of the source.

Key:
[1] = system: carbapenem-resistant bacterial strains
Source text: For each strain tested, each PMBN concentration and each indicator carbapenem, the MIC measured is compared to that obtained in the absence of PMBN. In the light of the possible difference in MIC values, a prognosis for the mechanism of resistance developed by the strain tested is established by applying the following general premise: A decrease in MICIM/ETP in the presence of PMBN is an indication of carbapenem resistance by membrane impermeability. In any other case, another mechanism of resistance is implicated.
For the purposes of verifying the accuracy of the prognoses established and the relevance of the general premise mentioned above: • each strain was tested by Western blot with the view to detection of porins (in the case in point, of the OmpF and OmpC isoforms), and • for some of the strains tested, in particular those for which there remains a doubt as to the mechanism of resistance developed (prognosis established in contradiction with the results of the porin detection by Western blot), a test for detecting carbapenemases by means of the RAPIDEC® CARBA NP kit (bioMérieux, France) was also carried out.
As regards the results thus obtained, the characterization of the strains termed carbapenem resistant by membrane impermeability is established either by the absence of porins detected by Western blot, or by carbapenem resistance that is not linked to the presence of carbapenemase, verified by a molecular method (PCR) and/or by a phenotypic method (RAPIDEC® CARBA NP).
A second method of interpretation of the results compiled in table 3 is proposed here. The prognosis system is based on the following “refined” premise: A decrease in MICIM/ETP, in the presence of PMBN, by at least a factor of 4 (that is to say with a difference in MIC of 2 doubling dilutions), is the signal of carbapenem resistance by membrane impermeability. If not, another mechanism of resistance is implicated.

[2] = system: K. pneumoniae 0404024 (VIM-1 producer); assay: Etest MIC of indicator carbapenems on MH II agar without/with PMBN; type: cell-based
Procedure: (§1) The determinations of antibiotic MIC were carried out on solid culture media with the Etest® method. To do this, Etest® strips (bioMérieux, France) were used: • Etest® Imipenem IM 32, and • Etest® Ertapenem ETP 32, and also solid culture media, differing from one another by virtue of their non-inhibitory concentrations of PMBN.
(§2) These solid culture media are prepared in Petri dishes (0=145 mm; V=50 ml) on a base of MH II Agar (Becton Dickinson®, United States), more or less supplemented with PMBN. The PMBN concentrations range from 0 up to concentrations equivalent to one fifth of the MIC of PMBN (⅕ MICPMBN).
(§3) Using a swab and the Retro C80™ rota-plater (bioMérieux, France), the culture media were inoculated with the bacteria, originating from an inoculum of 0.5 McFarland, prepared in 0.85% NaCl solution from colonies subcultured the day before on MH II agar.
(§4) The various Etest® strips are then deposited on the surface of the culture media. After 16 to 20 hours of incubation at 35° C., the MICS were read.
(§5) To do this, imipenem and ertapenem were used as indicator carbapenems. Non-inhibitory concentrations of PMBN, equivalent to concentrations of one tenth ( 1/10), one eighth (⅛) and one fifth (⅕) of the MIC of PMBN, were applied.

[3] = system: E. cloacae 1101172 (NDM producer); assay: as above; type: cell-based
Procedure: as §1, §2, §3, §4, §5

[4] = system: E. cloacae 1008096 (VIM-1 producer); assay: as above; type: cell-based
Procedure: as §1, §2, §3, §4, §5

[5] = system: E. cloacae 1008073 (VIM-1 producer); assay: as above; type: cell-based
Procedure: as §1, §2, §3, §4, §5

[6] = system: K. pneumoniae 1012335 (OXA-48 producer); assay: as above; type: cell-based
Procedure: as §1, §2, §3, §4, §5

[7] = system: K. pneumoniae 1108016 (VIM-1 producer); assay: as above; type: cell-based
Procedure: as §1, §2, §3, §4, §5

[8] = system: K. pneumoniae 1104053 (OXA-48 producer); assay: as above; type: cell-based
Procedure: as §1, §2, §3, §4, §5

[9] = system: K. pneumoniae 1108001 (KPC-2 producer); assay: as above; type: cell-based
Procedure: as §1, §2, §3, §4, §5

[10] = system: E. coli 1008077 (VIM-1 producer); assay: as above; type: cell-based
Procedure: as §1, §2, §3, §4, §5

[11] = system: E. coli 0506040 (VIM-1 producer); assay: as above; type: cell-based
Procedure: as §1, §2, §3, §4, §5

[12] = system: K. pneumoniae 1108006 (KPC-2 producer); assay: as above; type: cell-based
Procedure: as §1, §2, §3, §4, §5

[13] = system: C. freundii 1204047; assay: as above; type: cell-based
Procedure: as §1, §2, §3, §4, §5

[14] = system: K. pneumoniae 0901027 (KPC-3 producer); assay: as above; type: cell-based
Procedure: as §1, §2, §3, §4, §5

[15] = system: E. coli 1012292 (KPC-2 producer); assay: as above; type: cell-based
Procedure: as §1, §2, §3, §4, §5

C[C@@H](O)[C@H]1C(=O)N2C(C(=O)O)=C(S[C@@H]3CN[C@H](C(=O)Nc4cccc(C(=O)O)c4)C3)[C@H](C)[C@H]12 [ETP, ertapenem]
reliability of a negative prognosis with regard to resistance by membrane impermeability ([1]; general premise): 90% | reliability of a positive prognosis with regard to resistance by membrane impermeability ([1]; general premise): 66% | reliability of a negative prognosis with regard to resistance by membrane impermeability ([1]; refined premise): 85% | reliability of a positive prognosis with regard to resistance by membrane impermeability ([1]; refined premise): 86% | MIC ([2]; [PMBN] 0): 128 µg/mL | MIC ([2]; [PMBN] MIC/5): 16 µg/mL | MIC ([2]; [PMBN] MIC/8): 32 µg/mL | MIC ([2]; [PMBN] MIC/10): 32 µg/mL | MIC ([3]; [PMBN] 0): 4 µg/mL | MIC ([3]; [PMBN] MIC/5): 4 µg/mL | MIC ([3]; [PMBN] MIC/8): 8 µg/mL | MIC ([3]; [PMBN] MIC/10): 8 µg/mL | MIC ([4]; [PMBN] 0): 4 µg/mL | MIC ([4]; [PMBN] MIC/5): 4 µg/mL | MIC ([4]; [PMBN] MIC/8): 4 µg/mL | MIC ([4]; [PMBN] MIC/10): 4 µg/mL | MIC ([5]; [PMBN] 0): 2 µg/mL | MIC ([5]; [PMBN] MIC/5): 1 µg/mL | MIC ([5]; [PMBN] MIC/8): 1 µg/mL | MIC ([5]; [PMBN] MIC/10): 1 µg/mL | MIC ([6]; [PMBN] 0): 2 µg/mL | MIC ([6]; [PMBN] MIC/5): 4 µg/mL | MIC ([6]; [PMBN] MIC/8): 4 µg/mL | MIC ([6]; [PMBN] MIC/10): 4 µg/mL | MIC ([7]; [PMBN] 0): 1 µg/mL | MIC ([7]; [PMBN] MIC/5): 2 µg/mL | MIC ([7]; [PMBN] MIC/8): 4 µg/mL | MIC ([7]; [PMBN] MIC/10): 4 µg/mL | MIC ([8]; [PMBN] 0): 4 µg/mL | MIC ([8]; [PMBN] MIC/5): 4 µg/mL | MIC ([8]; [PMBN] MIC/8): 4 µg/mL | MIC ([8]; [PMBN] MIC/10): 4 µg/mL | MIC ([9]; [PMBN] 0): 16 µg/mL | MIC ([9]; [PMBN] MIC/5): 8 µg/mL | MIC ([9]; [PMBN] MIC/8): 8 µg/mL | MIC ([9]; [PMBN] MIC/10): 16 µg/mL | MIC ([10]; [PMBN] 0): 8 µg/mL | MIC ([10]; [PMBN] MIC/5): 4 µg/mL | MIC ([10]; [PMBN] MIC/8): 4 µg/mL | MIC ([10]; [PMBN] MIC/10): 4 µg/mL | MIC ([11]; [PMBN] 0): 0.25 µg/mL | MIC ([11]; [PMBN] MIC/5): 0.25 µg/mL | MIC ([11]; [PMBN] MIC/8): 0.25 µg/mL | MIC ([11]; [PMBN] MIC/10): 0.25 µg/mL | MIC ([12]; [PMBN] 0): 64 µg/mL | MIC ([12]; [PMBN] MIC/5): 256 µg/mL | MIC ([12]; [PMBN] MIC/8): 256 µg/mL | MIC ([12]; [PMBN] MIC/10): 256 µg/mL | MIC ([13]; [PMBN] 0): 32 µg/mL | MIC ([13]; [PMBN] MIC/5): 4 µg/mL | MIC ([13]; [PMBN] MIC/8): 8 µg/mL | MIC ([13]; [PMBN] MIC/10): 8 µg/mL | MIC ([14]; [PMBN] 0): 16 µg/mL | MIC ([14]; [PMBN] MIC/5): 64 µg/mL | MIC ([14]; [PMBN] MIC/8): 64 µg/mL | MIC ([14]; [PMBN] MIC/10): 64 µg/mL | MIC ([15]; [PMBN] 0): 8 µg/mL | MIC ([15]; [PMBN] MIC/5): 2 µg/mL | MIC ([15]; [PMBN] MIC/8): 4 µg/mL | MIC ([15]; [PMBN] MIC/10): 4 µg/mL

C[C@@H](O)[C@H]1C(=O)N2C(C(=O)O)=C(SCCN=CN)C[C@H]12 [IM, imipenem]
reliability of a negative prognosis with regard to resistance by membrane impermeability ([1]; general premise): 87% | reliability of a positive prognosis with regard to resistance by membrane impermeability ([1]; general premise): 73% | reliability of a negative prognosis with regard to resistance by membrane impermeability ([1]; refined premise): 77% | reliability of a positive prognosis with regard to resistance by membrane impermeability ([1]; refined premise): 95% | MIC ([2]; [PMBN] 0): 64 µg/mL | MIC ([2]; [PMBN] MIC/5): 64 µg/mL | MIC ([2]; [PMBN] MIC/8): 64 µg/mL | MIC ([2]; [PMBN] MIC/10): 64 µg/mL | MIC ([3]; [PMBN] 0): 4 µg/mL | MIC ([3]; [PMBN] MIC/5): 4 µg/mL | MIC ([3]; [PMBN] MIC/8): 16 µg/mL | MIC ([3]; [PMBN] MIC/10): 8 µg/mL | MIC ([4]; [PMBN] 0): 4 µg/mL | MIC ([4]; [PMBN] MIC/5): 4 µg/mL | MIC ([4]; [PMBN] MIC/8): 8 µg/mL | MIC ([4]; [PMBN] MIC/10): 8 µg/mL | MIC ([5]; [PMBN] 0): 0.25 µg/mL | MIC ([5]; [PMBN] MIC/5): 0.25 µg/mL | MIC ([5]; [PMBN] MIC/8): 0.25 µg/mL | MIC ([5]; [PMBN] MIC/10): 0.25 µg/mL | MIC ([6]; [PMBN] 0): 2 µg/mL | MIC ([6]; [PMBN] MIC/5): 2 µg/mL | MIC ([6]; [PMBN] MIC/8): 2 µg/mL | MIC ([6]; [PMBN] MIC/10): 2 µg/mL | MIC ([7]; [PMBN] 0): 4 µg/mL | MIC ([7]; [PMBN] MIC/5): 4 µg/mL | MIC ([7]; [PMBN] MIC/8): 8 µg/mL | MIC ([7]; [PMBN] MIC/10): 8 µg/mL | MIC ([8]; [PMBN] 0): 2 µg/mL | MIC ([8]; [PMBN] MIC/5): 2 µg/mL | MIC ([8]; [PMBN] MIC/8): 2 µg/mL | MIC ([8]; [PMBN] MIC/10): 2 µg/mL | MIC ([9]; [PMBN] 0): 8 µg/mL | MIC ([9]; [PMBN] MIC/5): 4 µg/mL | MIC ([9]; [PMBN] MIC/8): 8 µg/mL | MIC ([9]; [PMBN] MIC/10): 8 µg/mL | MIC ([10]; [PMBN] 0): 16 µg/mL | MIC ([10]; [PMBN] MIC/5): 16 µg/mL | MIC ([10]; [PMBN] MIC/8): 16 µg/mL | MIC ([10]; [PMBN] MIC/10): 8 µg/mL | MIC ([11]; [PMBN] 0): 4 µg/mL | MIC ([11]; [PMBN] MIC/5): 4 µg/mL | MIC ([11]; [PMBN] MIC/8): 4 µg/mL | MIC ([11]; [PMBN] MIC/10): 4 µg/mL | MIC ([12]; [PMBN] 0): 32 µg/mL | MIC ([12]; [PMBN] MIC/5): 32 µg/mL | MIC ([12]; [PMBN] MIC/8): 64 µg/mL | MIC ([12]; [PMBN] MIC/10): 32 µg/mL | MIC ([13]; [PMBN] 0): 1 µg/mL | MIC ([13]; [PMBN] MIC/5): 1 µg/mL | MIC ([13]; [PMBN] MIC/8): 1 µg/mL | MIC ([13]; [PMBN] MIC/10): 2 µg/mL | MIC ([14]; [PMBN] 0): 8 µg/mL | MIC ([14]; [PMBN] MIC/5): 16 µg/mL | MIC ([14]; [PMBN] MIC/8): 8 µg/mL | MIC ([14]; [PMBN] MIC/10): 16 µg/mL | MIC ([15]; [PMBN] 0): 8 µg/mL | MIC ([15]; [PMBN] MIC/5): 1 µg/mL | MIC ([15]; [PMBN] MIC/8): 4 µg/mL | MIC ([15]; [PMBN] MIC/10): 4 µg/mL
